≈ marks a conversion by molar mass, not a printed value.
Key:
[1] = molecular target: T1, NADPH--cytochrome P450 reductase (Mus musculus, UniProt P37040); assay: Metabolic stability in CD-1 mouse liver S9 fraction assessed as NADPH CYP450 reductase-mediated compound metabolism by measuring compound remaining in presence of NADPH at 20 uM after 30 mins by HPLC method; format: ADME; conditions: read-out: Stability
T1 sequence (P37040 whole entry): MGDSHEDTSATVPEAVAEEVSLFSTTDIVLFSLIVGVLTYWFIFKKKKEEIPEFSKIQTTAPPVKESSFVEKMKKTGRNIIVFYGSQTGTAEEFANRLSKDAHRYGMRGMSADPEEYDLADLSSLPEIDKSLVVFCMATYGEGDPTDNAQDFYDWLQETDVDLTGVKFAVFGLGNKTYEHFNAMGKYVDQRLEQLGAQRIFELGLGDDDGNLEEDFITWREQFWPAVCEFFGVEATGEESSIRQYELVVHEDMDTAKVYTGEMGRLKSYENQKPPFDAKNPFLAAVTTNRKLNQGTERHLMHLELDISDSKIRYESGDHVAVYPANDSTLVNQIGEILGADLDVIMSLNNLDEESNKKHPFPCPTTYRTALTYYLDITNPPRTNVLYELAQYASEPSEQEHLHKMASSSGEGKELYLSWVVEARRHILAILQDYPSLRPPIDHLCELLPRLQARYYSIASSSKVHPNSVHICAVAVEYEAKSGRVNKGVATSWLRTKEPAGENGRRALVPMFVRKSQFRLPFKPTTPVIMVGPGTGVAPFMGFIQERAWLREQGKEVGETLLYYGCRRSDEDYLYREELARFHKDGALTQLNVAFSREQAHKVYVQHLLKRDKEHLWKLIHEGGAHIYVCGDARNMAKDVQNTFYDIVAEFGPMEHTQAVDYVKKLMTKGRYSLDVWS

UGT [2] = assay: Metabolic stability in CD-1 mouse liver S9 fraction assessed as UGT-mediated glucuronidation of compound by measuring compound remaining at 5 uM preincubated for 3 mins followed by UDPGA addition measured after 60 mins by HPLC/MS analysis; format: ADME; conditions: read-out: Stability
UGT [3] = assay: Metabolic stability in Wistar rat liver S9 fraction assessed as UGT-mediated glucuronidation of compound by measuring compound remaining at 5 uM preincubated for 3 mins followed by UDPGA addition measured after 60 mins by HPLC/MS analysis; format: ADME; conditions: read-out: Stability
[4] = molecular target: T2, NADPH--cytochrome P450 reductase (Rattus norvegicus, UniProt P00388); assay: Metabolic stability in rat liver microsomes assessed as NADPH CYP450 reductase-mediated compound metabolism by measuring compound remaining in presence of NADPH at 20 uM after 30 mins by HPLC; format: ADME; conditions: read-out: Stability
T2 sequence (P00388 whole entry): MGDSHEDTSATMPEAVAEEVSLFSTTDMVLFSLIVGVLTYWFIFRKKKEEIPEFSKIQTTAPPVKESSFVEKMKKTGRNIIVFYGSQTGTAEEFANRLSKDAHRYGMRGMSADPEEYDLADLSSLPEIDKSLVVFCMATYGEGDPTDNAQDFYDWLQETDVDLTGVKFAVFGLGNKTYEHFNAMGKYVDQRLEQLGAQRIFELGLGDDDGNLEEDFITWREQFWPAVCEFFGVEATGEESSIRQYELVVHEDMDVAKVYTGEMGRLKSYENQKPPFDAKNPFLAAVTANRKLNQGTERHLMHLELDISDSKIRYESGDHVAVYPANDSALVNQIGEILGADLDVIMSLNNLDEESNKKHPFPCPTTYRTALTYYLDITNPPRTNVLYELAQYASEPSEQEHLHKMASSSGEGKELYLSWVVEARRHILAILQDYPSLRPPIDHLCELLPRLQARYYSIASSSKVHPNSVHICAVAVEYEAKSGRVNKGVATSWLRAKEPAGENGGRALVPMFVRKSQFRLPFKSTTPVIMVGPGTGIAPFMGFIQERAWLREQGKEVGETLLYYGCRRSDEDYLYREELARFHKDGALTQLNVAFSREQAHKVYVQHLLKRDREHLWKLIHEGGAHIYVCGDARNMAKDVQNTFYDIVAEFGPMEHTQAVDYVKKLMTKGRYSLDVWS

[5] = molecular target: T2, NADPH--cytochrome P450 reductase; assay: Metabolic stability in rat liver S9 fraction assessed as NADPH CYP450 reductase-mediated compound metabolism by measuring compound remaining in presence of NADPH at 20 uM after 30 mins by HPLC method; format: ADME; conditions: read-out: Stability
[6] = Thermodynamic solubility of the compound in phosphate buffer at pH 7.4 at 1 mg sonicated for 10 mins measured after 20 hrs by reverse phase HPLC analysis; format: physicochemical; conditions: read-out: Therm_solubility
[7] = molecular target: T3, Cytosolic phospholipase A2 (Homo sapiens, UniProt P47712); assay: Inhibition of human platelet cytosolic phospholipase alpha-2 using 1-stearoyl-2-arachidonoyl-sn-glycero-3-phosphocholine/1,2-dioleoyl-sn-glycerol as substrate after 60 mins by UV-HPLC method
T3 sequence (P47712 whole entry): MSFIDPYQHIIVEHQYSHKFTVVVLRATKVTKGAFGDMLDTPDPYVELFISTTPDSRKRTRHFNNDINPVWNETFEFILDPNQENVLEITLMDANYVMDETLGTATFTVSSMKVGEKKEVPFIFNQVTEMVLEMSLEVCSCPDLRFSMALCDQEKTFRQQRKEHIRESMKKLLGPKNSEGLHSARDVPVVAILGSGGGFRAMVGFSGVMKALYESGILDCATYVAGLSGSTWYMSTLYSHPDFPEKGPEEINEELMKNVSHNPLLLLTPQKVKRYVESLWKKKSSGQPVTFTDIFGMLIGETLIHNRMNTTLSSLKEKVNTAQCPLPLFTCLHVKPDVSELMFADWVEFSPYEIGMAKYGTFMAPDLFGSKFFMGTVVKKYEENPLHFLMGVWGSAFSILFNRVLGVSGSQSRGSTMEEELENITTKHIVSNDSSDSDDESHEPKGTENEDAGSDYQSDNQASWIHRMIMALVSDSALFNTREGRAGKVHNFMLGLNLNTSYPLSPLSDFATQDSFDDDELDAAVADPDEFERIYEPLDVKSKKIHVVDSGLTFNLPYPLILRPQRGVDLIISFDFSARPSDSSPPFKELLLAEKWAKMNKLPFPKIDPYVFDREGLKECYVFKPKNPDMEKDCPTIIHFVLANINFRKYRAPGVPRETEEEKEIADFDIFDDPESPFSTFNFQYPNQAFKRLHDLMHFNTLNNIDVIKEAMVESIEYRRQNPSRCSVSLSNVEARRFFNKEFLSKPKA

Row | remaining at 0.5 h, 20 µM [1] [%] | remaining at 1 h, 5 µM (UGT [2]) [%] | remaining at 1 h, 5 µM (UGT [3]) [%] | remaining at 0.5 h, 20 µM [4] [%] | remaining at 0.5 h, 20 µM [5] [%] | solubility thermodynamic at 20 h [6] [µg/mL] | IC50 [7] [nM] | SMILES
1 | 86 | 78 | 83 | 93 | 100 | – | – | CCCCCCCCc1ccc(OCC(=O)Cn2cc(C(=O)CCCCC)c3cc(C(=O)O)ccc32)cc1
2 | 78 | 27 | 43 | 86 | 72 | 422 (≈ 788 µM) | 31 | CCCCCCCCc1ccc(OCC(=O)Cn2cc(C(=O)CCCCCO)c3cc(C(=O)O)ccc32)cc1
3 | – | – | – | – | – | 246 (≈ 688 µM) | – | COc1ccc2c(c1)c(CC(=O)O)c(C)n2C(=O)c1ccc(Cl)cc1 [INDOMETHACIN]

Source: ChEMBL document CHEMBL4000171, “Structure-activity relationship studies on 1-(2-oxopropyl)indole-5-carboxylic acids acting as inhibitors of cytosolic phospholipase A2α: Effect of substituents at the indole 3-position on activity, solubility, and metabolic stability” (Eur J Med Chem, 2017)
